# According to patent US10144723B2, “Treatment of solid tumors by inhibiting MRK/ZAK” (The Feinstein Institute For Medical Research, priority 2014, dated 2018):
# Assays:
# MRK [1] = target: T1, MRK (Homo sapiens, UniProt Q9NYL2); set-up: endogenous in cells; host or cells: UW228 medulloblastoma cells; settings: reference (6); cited from earlier work
# p38 = assay: IR-induced signaling downstream of MRK, phospho-p38 western blot; type: cell-based; settings: UW228 cells, 500 nM M443 6 hours, 1 hour after IR
# Protocol: (§1) FIG. 7. Inhibition of IR-induced signaling downstream of MRK by M443. UW228 medulloblastoma cells were treated with 500 nM of M443 or with vehicle for 6 hours, and then exposed to IR or not. One hour after IR treatment, cells were harvested and cell lysates were tested by western blot for the activities of MRK, p38 and Chk2 proteins using the respective phospho-specific antibodies.
# (§2) By inhibiting MRK activity, M443 was expected to reduce signal transduction downstream of MRK. […] Thus, M443 inhibits MRK activation by IR and its downstream signaling events, which leads to loss of cell viability after exposure to IR.
# MRK [2] = target: T1, MRK; assay: MRK activity in K562 cells, western blot; type: cell-based; set-up: endogenous in cells; settings: 1 μM, 6 hours
# Protocol: (§3) FIG. 11. M443 inhibits MRK activity, but not BCR-Abl. K562 cells were treated with DMSO, 1 μM Nilotinib or 1 μM M443 for 6 hours and then they were processed for western blot with the indicated antibodies.
# MRK [3] = assay: Irreversible inhibition of MRK activity after washout (P-MRK western blot); type: cell-based; settings: cells expressing activatable MRK construct, pretreated 6 hours, washed, then homodimerizing drug
# Protocol: FIG. 5. M443 inhibits MRK activity in an irreversible fashion. Cells expressing an activatable MRK construct were pretreated with the indicated inhibitors for 6 hours, then they were washed with PBS 3 times, incubated for 15 minutes, washed once more and after 15 minutes they were treated with the homodimerizing drug to activate MRK. Cell lysates were western blotted with the P-MRK antibody to detect active MRK (top blot). Histograms are data from quantified P-MRK bands from three independent experiments.
# c-Abl = c-Abl activity in brain lysates, phospho-Abl western blot; type: in vivo, nude mice; settings: treated versus untreated tumor
# Protocol: M443 is a derivative of nilotinib, an inhibitor of the BCR-Abl oncogene. To examine the specificity of M443, the activity of c-Abl was also determined, by blotting the brain lysates with a phospho-Abl-(P-c-Abl) specific antibody. […] As Abl is known to respond to stress, the increase in P-c-Abl may be caused by M443-induced cell stress.
# [4] = test system: IMB226 medulloblastoma cells; assay: Animal model of medulloblastoma, orthotopic implantation, survival; type: in vivo, nude mice
# Protocol: FIG. 9. Kaplan-Meier survival curve. Three weeks after implantation of IMB226 medulloblastoma cells in nude mice, animals were randomized into 4 groups of 12 mice for each treatment. M443 or the vehicle were delivered directly into the tumor via an ALZET pump.
# The effect of M443 was tested in an animal model of medulloblastoma that employs orthotopic implantation of IMB226 medulloblastoma cells in nude mice. M443 was administered directly into the tumor using an osmotic pump that is connected to a catheter implanted into the brain in order to bypass the blood-brain barrier.
# BCR-Abl = target: T2, BCR-Abl (Homo sapiens, UniProt P00519); assay: BCR-Abl activity in K562 cells, western blot; type: cell-based; settings: 1 μM, 6 hours
# T2 construct: BCR (N-terminal fusion partner, P11274); endogenous in cells; host or cells: K562; the other entry of the earlier key: BCR (P11274, Breakpoint cluster region protein)
# T2 sequence (P00519 with tags, fused parts or gaps): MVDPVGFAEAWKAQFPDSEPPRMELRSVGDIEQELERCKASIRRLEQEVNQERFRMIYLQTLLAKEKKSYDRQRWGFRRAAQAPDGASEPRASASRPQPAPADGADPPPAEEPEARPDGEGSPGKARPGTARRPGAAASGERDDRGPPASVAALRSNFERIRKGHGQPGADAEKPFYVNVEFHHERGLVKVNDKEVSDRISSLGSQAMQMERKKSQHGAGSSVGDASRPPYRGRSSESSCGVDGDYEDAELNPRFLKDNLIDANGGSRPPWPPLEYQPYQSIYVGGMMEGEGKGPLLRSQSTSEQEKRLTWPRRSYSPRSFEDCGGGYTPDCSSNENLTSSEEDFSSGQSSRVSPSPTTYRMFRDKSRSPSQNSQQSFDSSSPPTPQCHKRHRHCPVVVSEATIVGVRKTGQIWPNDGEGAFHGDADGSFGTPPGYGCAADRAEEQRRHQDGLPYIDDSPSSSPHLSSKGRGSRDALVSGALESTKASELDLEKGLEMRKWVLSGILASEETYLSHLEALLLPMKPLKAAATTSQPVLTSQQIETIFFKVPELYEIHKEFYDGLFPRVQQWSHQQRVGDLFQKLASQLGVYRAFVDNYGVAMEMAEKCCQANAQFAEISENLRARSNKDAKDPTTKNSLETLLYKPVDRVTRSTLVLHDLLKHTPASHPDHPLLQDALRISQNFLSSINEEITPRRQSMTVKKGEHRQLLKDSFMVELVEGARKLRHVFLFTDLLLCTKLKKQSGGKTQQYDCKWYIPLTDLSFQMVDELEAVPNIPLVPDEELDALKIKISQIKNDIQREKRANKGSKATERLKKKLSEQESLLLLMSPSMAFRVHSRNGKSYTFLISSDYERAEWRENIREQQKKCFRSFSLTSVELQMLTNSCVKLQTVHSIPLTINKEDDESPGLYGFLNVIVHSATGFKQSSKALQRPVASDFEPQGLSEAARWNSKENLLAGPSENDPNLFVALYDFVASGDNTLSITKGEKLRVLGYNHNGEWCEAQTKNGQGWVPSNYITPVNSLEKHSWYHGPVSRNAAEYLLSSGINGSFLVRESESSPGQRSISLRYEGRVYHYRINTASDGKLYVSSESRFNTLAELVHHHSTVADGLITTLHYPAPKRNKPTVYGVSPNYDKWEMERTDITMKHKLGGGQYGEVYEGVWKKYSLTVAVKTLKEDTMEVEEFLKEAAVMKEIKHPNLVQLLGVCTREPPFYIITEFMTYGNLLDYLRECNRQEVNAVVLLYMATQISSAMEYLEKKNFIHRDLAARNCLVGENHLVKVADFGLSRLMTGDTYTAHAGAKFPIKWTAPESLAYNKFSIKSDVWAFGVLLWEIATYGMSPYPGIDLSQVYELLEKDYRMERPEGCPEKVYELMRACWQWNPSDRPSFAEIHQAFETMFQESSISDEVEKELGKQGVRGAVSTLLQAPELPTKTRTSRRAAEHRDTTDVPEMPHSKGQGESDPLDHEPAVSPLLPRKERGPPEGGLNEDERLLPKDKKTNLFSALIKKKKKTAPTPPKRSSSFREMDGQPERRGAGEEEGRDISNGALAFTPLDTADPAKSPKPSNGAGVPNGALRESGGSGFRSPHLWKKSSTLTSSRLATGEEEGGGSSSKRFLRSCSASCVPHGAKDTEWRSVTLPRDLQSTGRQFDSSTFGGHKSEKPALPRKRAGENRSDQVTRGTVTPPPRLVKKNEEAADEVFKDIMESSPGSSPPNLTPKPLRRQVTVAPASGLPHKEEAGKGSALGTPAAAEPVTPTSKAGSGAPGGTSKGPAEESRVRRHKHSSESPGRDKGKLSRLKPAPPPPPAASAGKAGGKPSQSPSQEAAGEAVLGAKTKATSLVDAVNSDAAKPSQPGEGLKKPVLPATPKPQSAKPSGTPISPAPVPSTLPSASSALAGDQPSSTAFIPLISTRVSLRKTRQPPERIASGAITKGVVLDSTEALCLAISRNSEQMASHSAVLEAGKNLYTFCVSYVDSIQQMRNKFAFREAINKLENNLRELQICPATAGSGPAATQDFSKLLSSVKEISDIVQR
# Protocol: as §3
# MRK [5] = target: T1, MRK; assay: Inhibition of endogenous MRK activity induced by radiation in medulloblastoma cells; type: cell-based; set-up: endogenous in cells; host or cells: UW228 medulloblastoma cells
# Protocol: FIG. 7. Inhibition of IR-induced signaling downstream of MRK by M443. […] One hour after IR treatment, cells were harvested and cell lysates were tested by western blot for the activities of MRK, p38 and Chk2 proteins using the respective phospho-specific antibodies.
# 4T1 breast cancer cells = assay: MTT cell viability after X-ray irradiation; type: cell-based; settings: 4T1 cells, M443 6 hours before irradiation, MTT 72 hours after
# Protocol: FIG. 8. […] 4T1 breast cancer cells were plated in 96-well plates (750 cells per well/8 wells per condition) and treated with M443 at the indicated concentrations 6 hours before irradiating at the indicated dosages. 72 hours after irradiation MTT solution (1.25 μg/μl) was added to all wells and incubated for an additional 3 hours before cell viability/mitochondrial activity was analyzed. Shown are the means+/−SD of 8 replicate wells.
# Chk2 = assay: IR-induced signaling downstream of MRK, phospho-Chk2 western blot; type: cell-based; settings: UW228 cells, 500 nM M443 6 hours, 1 hour after IR
# Protocol: as §1, §2
# [6] = test system: UW228 medulloblastoma cells; assay: Colony formation assay with radiation; type: cell-based; settings: 6 hours M443 before radiation, colonies counted after 7 days
# Protocol: FIG. 6. M443 sensitizes UW228 medulloblastoma cells to radiation. UW228 cells were seeded for the colony formation assay at 500 cells/dish. The following day, they were treated for 6 hours with the indicated doses of M443 and then exposed to different doses of radiation. After incubation at 37° C. for 7 days, colonies larger than 50 cells were counted.
# MRK [7] = assay: Inhibition of MRK in vivo, brain lysates western blot; set-up: species or system nude mice; settings: 18 hours after pump implantation
# Protocol: FIG. 10. Inhibition of MRK in vivo. Brains from control and M443-treated animals were harvested 18 hours after pump implantation. Each cerebellum was dissected from the rest of the brain and divided into left (L) and right (R), top (T) and bottom (B) portions. Brain lysates were tested for MRK activity by western blotting. Human HLA (hu-HLA) was used to identify the brain portions containing tumor cells of human origin. Tubulin was used as loading control.
# To confirm that M443 administered into the brain inhibited MRK, brain extracts were obtained 18 hours after pump implantation, and MRK activity determined. […] The hu-HLA signal indicates the presence of tumor in the treated sample (lane 5).
# T1 sequence (Q9NYL2 whole entry): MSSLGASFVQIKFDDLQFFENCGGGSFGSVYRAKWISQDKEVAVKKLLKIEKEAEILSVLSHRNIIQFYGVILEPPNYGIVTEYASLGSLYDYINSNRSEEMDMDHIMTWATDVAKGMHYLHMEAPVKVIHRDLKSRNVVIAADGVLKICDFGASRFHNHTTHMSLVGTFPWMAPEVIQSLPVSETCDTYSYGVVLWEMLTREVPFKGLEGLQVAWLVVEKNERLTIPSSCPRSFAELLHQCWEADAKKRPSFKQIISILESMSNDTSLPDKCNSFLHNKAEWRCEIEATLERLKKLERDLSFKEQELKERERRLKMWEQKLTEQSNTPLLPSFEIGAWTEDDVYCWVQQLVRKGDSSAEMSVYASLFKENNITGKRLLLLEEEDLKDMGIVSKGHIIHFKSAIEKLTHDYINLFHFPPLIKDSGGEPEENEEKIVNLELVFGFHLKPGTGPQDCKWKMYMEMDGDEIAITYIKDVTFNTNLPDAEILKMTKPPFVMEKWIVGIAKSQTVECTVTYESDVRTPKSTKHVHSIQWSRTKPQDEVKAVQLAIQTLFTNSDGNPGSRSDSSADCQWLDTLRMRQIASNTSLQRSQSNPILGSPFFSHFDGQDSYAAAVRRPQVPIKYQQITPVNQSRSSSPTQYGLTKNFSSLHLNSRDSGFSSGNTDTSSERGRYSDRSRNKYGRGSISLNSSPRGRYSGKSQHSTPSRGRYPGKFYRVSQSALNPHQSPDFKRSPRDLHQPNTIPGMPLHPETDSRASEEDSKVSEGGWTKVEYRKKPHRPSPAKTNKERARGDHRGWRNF
smiles,measurement,setting,value
Cc1cn(-c2cc(NC(=O)c3ccc(C)c(Nc4nccc(-c5cccnc5)n4)c3)cc(C(F)(F)F)c2)cn1 [nilotinib],binding to MRK,MRK [1],binds strongly to MRK
C=CC(=O)N1CCCC(c2ccnc(Nc3cc(C(=O)Nc4cc(-n5cnc(C)c5)cc(C(F)(F)F)c4)ccc3C)n2)C1 (stereo not shown) [M443],activation of p38 by ionizing radiation,p38,greatly reduced
same,inhibition of MRK activity in K562 cells,MRK [2],as efficient as nilotinib
same,inhibition of MRK activity (P-MRK) after washout,MRK [3],effectively inhibits MRK in an irreversible fashion
same,P-c-Abl signal in brain lysates,c-Abl,somewhat increased
same,"survival benefit, M443 on its own","[4]; IMB226 orthotopic in nude mice, M443 into the tumor via osmotic pump, no IR",5 days
same,"increase in survival, combination of M443 and IR","[4]; IMB226 orthotopic in nude mice, M443 into the tumor via osmotic pump, plus IR",16 days
same,tumor hemorrhage,[4]; M443-treated tumors,less hemorrhagic
same,radiosensitization effect on survival,"[4]; p<0.0029, 2×2 factorial Cox model",very significant radiosensitization effect
same,inhibition of BCR-Abl in K562 cells,BCR-Abl,does not inhibit BCR-Abl
same,IC50,MRK [5],~125 nM
same,sensitization to X-ray irradiation (MTT viability),4T1 breast cancer cells,sensitizes breast cancer cells to X-ray irradiation
same,activation of Chk2 by ionizing radiation,Chk2,greatly reduced
same,sensitization to killing by radiation (colony formation),[6],strongly sensitized
same,P-MRK signal in brain lysates,MRK [7],none of the fractions from the M443-treated animal had a detectable signal for P-MRK
same,total MRK levels in tumors,MRK [7],strongly decreased
